Assay [1] deals with T1, cloned human δ opioid receptors (Homo sapiens, UniProt P41143).
T1 construct: expressed in transfected cells; host or cells: CHO cells
Kind of assay: [3H]diprenorphine receptor binding, δ opioid receptor. The conditions noted are these: inhibition of [3H]diprenorphine binding; Cheng-Prusoff correction; read-out: affinity (expressed as Ki value), δ opioid receptor. The method, then: (§1) The potencies of the final compounds found in Examples 1A-9D were determined by testing the ability of a range of concentrations of each compound to inhibit the binding of the non-selective opioid antagonist, [^3H]diprenorphine, to the cloned human μ, ? and δ opioid receptors, expressed in separate cell lines. IC50 values were obtained by nonlinear analysis of the data using GraphPad Prism version 3.00 for Windows (GraphPad Software, San Diego). Ki values were obtained by Cheng-Prusoff corrections of IC50 values.
(§2) The receptor binding method (DeHaven and DeHaven-Hudkins, 1998) was a modification of the method of Raynor et al. (1994). […] The filters were rinsed 4 times with 1 mL of cold 50 mM Tris HCl, pH 7.8 and radioactivity remaining on the filters determined by scintillation spectroscopy. Nonspecific binding was determined by the minimum values of the titration curves and was confirmed by separate assay wells containing 10 μM naloxone. Ki values were determined by Cheng-Prusoff corrections of IC50 values derived from nonlinear regression fits of 12 point titration curves using GraphPad Prism® version 3.00 for Windows (GraphPad Software, San Diego, Calif.).
(§3) To determine the equilibrium dissociation constant for the inhibitors (Ki), radioligand bound (cpm) in the presence of various concentrations of test compounds was measured. […]

Assay [2] deals with T2, cloned human μ opioid receptors (Homo sapiens, UniProt P35372).
T2 construct: expressed in transfected cells; host or cells: CHO cells
Kind of assay: [3H]diprenorphine receptor binding, μ opioid receptor. The conditions noted are these: inhibition of [3H]diprenorphine binding; Cheng-Prusoff correction; read-out: affinity (expressed as Ki value), μ opioid receptor. The method, then: as §1, §2, §3

Assay [3] deals with T3, cloned human κ opioid receptors (Homo sapiens, UniProt P41145).
T3 construct: expressed in transfected cells; host or cells: CHO cells
Put plainly: [3H]diprenorphine receptor binding, κ opioid receptor. Conditions: inhibition of [3H]diprenorphine binding; Cheng-Prusoff correction; read-out: affinity (expressed as Ki value), κ opioid receptor. The method, then:
as §1, §2, §3

Assay [4] deals with T1, cloned human δ opioid receptors. Kind of assay: Receptor-mediated [35S]GTPγS binding, δ opioid receptor. The conditions noted are these: stimulation of [35S]GTPγS binding to membranes containing cloned human δ opioid receptors; read-out: in vitro δ agonist activity EC50. The class given is biochemical. The method, then: The potency and efficacy of compounds at each of the receptors are assessed by modifications of the methods of Selley, et al., 1997 and Traynor and Nahorski, 1995 using receptor-mediated [S]GTPγS binding in the same membrane preparations used to measure receptor binding. Assays are carried out in 96-well FlashPlates® (Perkin Elmer Life Sciences, Inc, Boston, Mass.). Membranes prepared from CHO cells expressing the appropriate receptor (50-100 μg of protein) are added to assay mixtures containing agonist with or without antagonists, 100 pM [^35S]GTPγS (approx. 100,000 dpm), 3.0 μM GDP, 75 mM NaCl, 15 mM MgCl2, 1.0 mM ethylene glycol-bis(β-aminoethyl ether)-N,N,N′,N′-tetracetic acid, 1.1 mM dithiothreitol, 10 μg/mL leupeptin, 10 μg/mL pepstatin A, 200 μg/mL bacitracin, and 0.5 μg/mL aprotinin in 50 mM Tris-HCl buffer, pH 7.8. After incubation at room temperature for one hour, the plates are sealed, centrifuged at 800×g in a swinging bucket rotor for 5 minutes and bound radioactivity determined with a TopCount microplate scintillation counter (Packard Instrument Co., Meriden, Conn.).
EC50 values for agonists are determined from nonlinear regression fits of 8- or 12-point titration curves to the 4-parameter equation for a sigmoidal dose-response with a slope factor of 1.0 using GraphPad Prism® version 3.00 for Windows (GraphPad Software, San Diego, Calif.).
A general note: Binding of GTPγS marks nucleotide exchange on a G protein.

T1 sequence (P41143 whole entry): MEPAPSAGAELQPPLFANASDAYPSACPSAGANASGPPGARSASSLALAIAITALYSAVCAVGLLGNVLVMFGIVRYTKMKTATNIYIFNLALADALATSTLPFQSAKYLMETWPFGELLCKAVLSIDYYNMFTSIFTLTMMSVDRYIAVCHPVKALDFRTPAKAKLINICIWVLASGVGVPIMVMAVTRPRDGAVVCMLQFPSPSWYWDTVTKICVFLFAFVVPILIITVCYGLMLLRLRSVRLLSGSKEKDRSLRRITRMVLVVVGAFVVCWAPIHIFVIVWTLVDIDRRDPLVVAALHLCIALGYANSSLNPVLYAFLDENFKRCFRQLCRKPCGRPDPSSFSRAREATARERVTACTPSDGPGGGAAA
T3 sequence (P41145 whole entry): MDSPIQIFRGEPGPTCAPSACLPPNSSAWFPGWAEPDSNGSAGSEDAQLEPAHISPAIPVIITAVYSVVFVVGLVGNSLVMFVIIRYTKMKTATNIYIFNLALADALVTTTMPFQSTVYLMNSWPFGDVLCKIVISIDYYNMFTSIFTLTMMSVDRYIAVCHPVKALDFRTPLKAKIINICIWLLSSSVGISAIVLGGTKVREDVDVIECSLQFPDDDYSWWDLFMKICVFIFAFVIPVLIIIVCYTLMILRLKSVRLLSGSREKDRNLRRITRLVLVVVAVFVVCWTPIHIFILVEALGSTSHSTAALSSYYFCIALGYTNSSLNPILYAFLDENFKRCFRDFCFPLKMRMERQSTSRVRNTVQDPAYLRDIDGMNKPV
T2 sequence (P35372 whole entry): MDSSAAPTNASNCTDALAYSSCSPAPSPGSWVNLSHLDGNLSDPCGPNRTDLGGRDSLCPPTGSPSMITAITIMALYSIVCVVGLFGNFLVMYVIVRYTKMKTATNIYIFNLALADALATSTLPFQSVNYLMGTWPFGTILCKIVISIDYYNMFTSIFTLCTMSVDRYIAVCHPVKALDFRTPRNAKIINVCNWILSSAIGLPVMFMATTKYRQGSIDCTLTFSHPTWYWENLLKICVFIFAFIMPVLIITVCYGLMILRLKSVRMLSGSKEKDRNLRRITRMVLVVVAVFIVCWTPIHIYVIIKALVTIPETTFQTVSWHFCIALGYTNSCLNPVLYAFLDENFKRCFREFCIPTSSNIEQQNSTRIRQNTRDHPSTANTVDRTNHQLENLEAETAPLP

Consider `CCNC(=O)c1ccc2c(c1)C(CCCCC(=O)N(CC)CC)CC1(CCNCC1)C2` (stereo not shown) [Example 9D, 4-[(4-N,N-diethylaminocarbonyl)butyl]-spiro[6-N-ethylcarbonyl-1,2,3,4-tetrahydronaphthalene-2,4′-piperidine]], for which the Ki in assay [1] stood at 0.47 nM; in assay [2] it was 632 nM; in assay [3], 696 nM. In addition, in assay [4], the EC50 worked out at 8.1 nM.

The Ki is a dissociation constant, usually derived from enzyme kinetics or from competition with a known ligand. A word on the EC50: it is the concentration at which the effect is half-maximal.

Values taken from patent US7576207B2, “Spirocyclic heterocyclic derivatives and methods of their use” (Adolor Corporation, priority 2006, dated 2009).
